Tests used:
[1] = Sensory testing as sweet modifier in SG95 base; details: 30 ppm, seven experts, scale -5 to 5 vs reference; for sweet effect as sweet modifier: SG95 (PureCircle) base; for licorice effect as sweet modifier / sweet lingering effect as sweet modifier: SG95 base
Procedure: (§1) Compound 101 was evaluated as a sweet modifier in SG95 (PureCircle) base at 30 ppm. Seven experts were asked to compare the intensity difference between reference (SG95 base) and Compound 101 was added to the sample. The taste properties (such as sweet, licorice, sweet lingering) were evaluated on a scale of −5 to 5 (−5 denoted strong masking effect and 5 denoted strong enhancing effect, 0 being the intensity of reference).
as §1, with “105” for “101”, “SG95” for “SG95 (PureCircle)”, “added” for “added to the”
as §1, with “104” for “101”, “SG95” for “SG95 (PureCircle)”, “104 adding” for “101 was added to the”

[2] = Sensory testing: sweet capacity in water solution versus sucrose; details: dosages 62.5 ppm and 250 ppm, ten experts, dosage for equal sweet intensity from sucrose
Procedure: Malonyl glycosides 101, 102, 104 and 105 were evaluated in water solution at two selected dosages (62.5 ppm and 250 ppm) to identify their sweet capacity. Ten experts were asked to evaluate sweet, licorice, and sweet lingering intensities on a linear scale. Then, the dosage for equal sweet intensity from sucrose was identified. Sweet capacity for each compound was calculated based on dosage difference between tested compound and sucrose.

SMILES: C=C1C[C@@]23CC[C@H]4[C@@](C)(CCC[C@@]4(C)C(=O)O[C@@H]4O[C@H](COC(=O)CC(=O)O)[C@@H](O)[C@H](O)[C@H]4O)[C@@H]2CCC1(O[C@@H]1O[C@H](CO)[C@@H](O)[C@H](O[C@@H]2O[C@H](CO)[C@@H](O)[C@H](O)[C@H]2O)[C@H]1O[C@@H]1O[C@H](CO)[C@@H](O)[C@H](O)[C@H]1O)C3 [Compound 101, 6′-O-malonyl Rebaudioside A]
- sweet effect as sweet modifier [1]: sweet enhancement effect
- licorice effect as sweet modifier [1]: better performance in licorice and sweet lingering masking than Rebaudioside A
- sweet lingering effect as sweet modifier [1]: better performance in licorice and sweet lingering masking than Rebaudioside A
- sweet capacity (times sweeter than sucrose) [2]: about 150 times sweeter than sucrose

SMILES: C=C1C[C@@]2(C)CC[C@H]3[C@@](C)(CCC[C@@]3(C)C(=O)O[C@@H]3O[C@H](COC(=O)CC(=O)O)[C@@H](O)[C@H](O)[C@H]3O)[C@@H]2CCC1(C)O[C@@H]1O[C@H](CO)[C@@H](O)[C@H](O)[C@H]1O[C@@H]1O[C@H](CO)[C@@H](O)[C@H](O)[C@H]1O (some centres unmarked) [Compound 102, 6′-O-malonyl stevioside]
- sweet capacity (times sweeter than sucrose) [2]: about 150 times sweeter than sucrose

SMILES: C=C1C[C@@]23CC[C@H]4[C@@](C)(CCC[C@@]4(C)C(=O)O[C@@H]4O[C@H](COC(=O)CC(=O)O)[C@@H](O)[C@H](O)[C@H]4O)[C@@H]2CCC1(O[C@@H]1O[C@H](CO)[C@@H](O)[C@H](O)[C@H]1O)C3 [Compound 104, 6′-O-malonyl rubusoside]
- sweet effect as sweet modifier [1]: sweet enhancement effect
- licorice effect as sweet modifier [1]: performed well on tests for licorice and lingering masking effect
- sweet lingering effect as sweet modifier [1]: performed well on tests for licorice and lingering masking effect
- sweet capacity (times sweeter than sucrose) [2]: about 120 times sweeter than sucrose

SMILES: C=C1C[C@@]23CC[C@H]4[C@@](C)(CCC[C@@]4(C)C(=O)O[C@@H]4O[C@H](CO)[C@@H](O)[C@H](O)[C@H]4O)[C@@H]2CCC1(O[C@@H]1O[C@H](CO)[C@@H](O)[C@H](O)[C@H]1O[C@@H]1O[C@H](COC(=O)CC(=O)O)[C@@H](O)[C@H](O)[C@H]1O)C3 [Compound 105, 6″′-O-malonyl stevioside]
- sweet effect as sweet modifier [1]: sweet enhancement effect
- sweet capacity (times sweeter than sucrose) [2]: about 100 times sweeter than sucrose

From US12667126B2, “Malonyl steviol glycosides and their comestible use” (Firmenich SA, priority 2020, dated 2026)
